Source: ChEMBL document CHEMBL4387762, “Multicomponent synthesis of α-acylamino and α-acyloxy amide derivatives of desmycosin and their activity against gram-negative bacteria” (2019)
≈ marks a conversion by molar mass, not a printed value.

What was measured:
Assay type in all cases: functional
[1] = system: Aliivibrio fischeri; experiment: Antimicrobial activity against Aliivibrio fischeri DSM507 assessed as growth inhibition at 1 uM incubated for 24 hrs by luminescence based assay relative to control; settings: DSM507, 24 h, read-out: GI
[2] = system: Aliivibrio fischeri; experiment: Antimicrobial activity against Aliivibrio fischeri DSM507 assessed as growth inhibition at 0.1 uM incubated for 24 hrs by luminescence based assay relative to control; settings: DSM507, 24 h, read-out: GI
[3] = system: Aliivibrio fischeri; experiment: Antimicrobial activity against Aliivibrio fischeri DSM507 assessed as growth inhibition incubated for 24 hrs by luminescence based assay; settings: DSM507, 24 h

Structure (SMILES) | inhibition of growth at 1 µM [1] [%] | inhibition of growth at 0.1 µM [2] [%] | MIC [3] [µM]
CC[C@H]1OC(=O)C[C@@H](O)[C@H](C)[C@@H](O[C@@H]2O[C@H](C)[C@@H](O)[C@H](N(C)C)[C@H]2O)[C@@H](CC(OC(=O)c2ccccc2)C(=O)NC(C)(C)C)C[C@@H](C)C(=O)/C=C/C(C)=C/[C@@H]1CO[C@H]1O[C@@H](C)[C@H](O)[C@H](OC)[C@@H]1OC (mixture of isomers) | 52 | 18 | 
CC[C@H]1OC(=O)C[C@@H](O)[C@H](C)[C@@H](O[C@@H]2O[C@H](C)[C@@H](O)[C@H](N(C)C)[C@H]2O)[C@@H](C[C@H](C(=O)NC(C)(C)C)N(C)C(C)=O)C[C@@H](C)C(=O)/C=C/C(C)=C/[C@@H]1CO[C@H]1O[C@@H](C)[C@H](O)[C@H](OC)[C@@H]1OC | 64 | 12 | 
CCCN(C(=O)c1ccccc1)C(C[C@H]1C[C@@H](C)C(=O)/C=C/C(C)=C/[C@H](CO[C@H]2O[C@@H](C)[C@H](O)[C@H](OC)[C@@H]2OC)[C@@H](CC)OC(=O)C[C@@H](O)[C@H](C)[C@H]1O[C@@H]1O[C@H](C)[C@@H](O)[C@H](N(C)C)[C@H]1O)C(=O)NC(C)(C)C (mixture of isomers) | 41 | 16 | 
CC[C@H]1OC(=O)C[C@@H](O)[C@H](C)[C@@H](O[C@@H]2O[C@H](C)[C@@H](O)[C@H](N(C)C)[C@H]2O)[C@@H](CC(C(=O)NC(C)(C)C)N(C(=O)c2ccccc2)c2ccccc2)C[C@@H](C)C(=O)/C=C/C(C)=C/[C@@H]1CO[C@H]1O[C@@H](C)[C@H](O)[C@H](OC)[C@@H]1OC (mixture of isomers) | 36 | 22 | 
CCC(=O)N(C(C)C)C(C[C@H]1C[C@@H](C)C(=O)/C=C/C(C)=C/[C@H](CO[C@H]2O[C@@H](C)[C@H](O)[C@H](OC)[C@@H]2OC)[C@@H](CC)OC(=O)C[C@@H](O)[C@H](C)[C@H]1O[C@@H]1O[C@H](C)[C@@H](O)[C@H](N(C)C)[C@H]1O)C(=O)NC(C)(C)C (mixture of isomers) | 71 | 38 | 
CC[C@H]1OC(=O)C[C@@H](O)[C@H](C)[C@@H](O[C@@H]2O[C@H](C)[C@@H](O)[C@H](N(C)C)[C@H]2O)[C@@H](CC(C(=O)NC(C)(C)C)N(CCCCN=[N+]=[N-])C(=O)c2ccccc2)C[C@@H](C)C(=O)/C=C/C(C)=C/[C@@H]1CO[C@H]1O[C@@H](C)[C@H](O)[C@H](OC)[C@@H]1OC (mixture of isomers) | 64 | 46 | 
CCCC(=O)N(C)C(C[C@H]1C[C@@H](C)C(=O)/C=C/C(C)=C/[C@H](CO[C@H]2O[C@@H](C)[C@H](O)[C@H](OC)[C@@H]2OC)[C@@H](CC)OC(=O)C[C@@H](O)[C@H](C)[C@H]1O[C@@H]1O[C@H](C)[C@@H](O)[C@H](N(C)C)[C@H]1O)C(=O)NC(C)(C)C (mixture of isomers) | 73 | 26 | 
CCCC(=O)N(C(C)C)C(C[C@H]1C[C@@H](C)C(=O)/C=C/C(C)=C/[C@H](CO[C@H]2O[C@@H](C)[C@H](O)[C@H](OC)[C@@H]2OC)[C@@H](CC)OC(=O)C[C@@H](O)[C@H](C)[C@H]1O[C@@H]1O[C@H](C)[C@@H](O)[C@H](N(C)C)[C@H]1O)C(=O)NC(C)(C)C (mixture of isomers) | 83 | 43 | 
CC[C@@H](C)CN(C(=O)c1ccccc1)C(C[C@H]1C[C@@H](C)C(=O)/C=C/C(C)=C/[C@H](CO[C@H]2O[C@@H](C)[C@H](O)[C@H](OC)[C@@H]2OC)[C@@H](CC)OC(=O)C[C@@H](O)[C@H](C)[C@H]1O[C@@H]1O[C@H](C)[C@@H](O)[C@H](N(C)C)[C@H]1O)C(=O)NC(C)(C)C (some centres undefined) | 52 | 25 | 
CC[C@H]1OC(=O)C[C@@H](O)[C@H](C)[C@@H](O[C@@H]2O[C@H](C)[C@@H](O)[C@H](N(C)C)[C@H]2O)[C@@H](CC(C(=O)NC2CCCCC2)N(C(=O)c2ccccc2)C(C)C)C[C@@H](C)C(=O)/C=C/C(C)=C/[C@@H]1CO[C@H]1O[C@@H](C)[C@H](O)[C@H](OC)[C@@H]1OC (mixture of isomers) | 44 | 21 | 
CCCCNC(=O)C(C[C@H]1C[C@@H](C)C(=O)/C=C/C(C)=C/[C@H](CO[C@H]2O[C@@H](C)[C@H](O)[C@H](OC)[C@@H]2OC)[C@@H](CC)OC(=O)C[C@@H](O)[C@H](C)[C@H]1O[C@@H]1O[C@H](C)[C@@H](O)[C@H](N(C)C)[C@H]1O)N(C)C(=O)CCC (mixture of isomers) | 62 | 15 | 
CCCC(=O)OC(C[C@H]1C[C@@H](C)C(=O)/C=C/C(C)=C/[C@H](CO[C@H]2O[C@@H](C)[C@H](O)[C@H](OC)[C@@H]2OC)[C@@H](CC)OC(=O)C[C@@H](O)[C@H](C)[C@H]1O[C@@H]1O[C@H](C)[C@@H](O)[C@H](N(C)C)[C@H]1O)C(=O)NC(C)(C)C (some centres undefined) | 90 | 58 | 
CC[C@H]1OC(=O)C[C@@H](O)[C@H](C)[C@@H](O[C@@H]2O[C@H](C)[C@@H](O)[C@H](N(C)C)[C@H]2O)[C@@H](CC(C(=O)NC(C)(C)C)N(C(=O)c2ccccc2)C(C)C)C[C@@H](C)C(=O)/C=C/C(C)=C/[C@@H]1CO[C@H]1O[C@@H](C)[C@H](O)[C@H](OC)[C@@H]1OC (mixture of isomers) | 79 | 54 | 
CC[C@H]1OC(=O)C[C@@H](O)[C@H](C)[C@@H](O[C@@H]2O[C@H](C)[C@@H](O)[C@H](N(C)C)[C@H]2O)[C@@H](CC(C(=O)NC(C)(C)C)N(CCCNC(=O)OCc2ccccc2)C(=O)c2ccccc2)C[C@@H](C)C(=O)/C=C/C(C)=C/[C@@H]1CO[C@H]1O[C@@H](C)[C@H](O)[C@H](OC)[C@@H]1OC (mixture of isomers) | 64 | 47 | 
CC[C@H]1OC(=O)C[C@@H](O)[C@H](C)[C@@H](O[C@@H]2O[C@H](C)[C@@H](O)[C@H](N(C)C)[C@H]2O)[C@@H](CC(C(=O)NC(C)(C)C)N(CC)C(=O)c2ccccc2)C[C@@H](C)C(=O)/C=C/C(C)=C/[C@@H]1CO[C@H]1O[C@@H](C)[C@H](O)[C@H](OC)[C@@H]1OC (mixture of isomers) | 20 | 11 | 
CC[C@H]1OC(=O)C[C@@H](O)[C@H](C)[C@@H](O[C@@H]2O[C@H](C)[C@@H](O)[C@H](N(C)C)[C@H]2O)[C@@H](CC(C(=O)NC(C)(C)C)N(CCCCN)C(=O)c2ccccc2)C[C@@H](C)C(=O)/C=C/C(C)=C/[C@@H]1CO[C@H]1O[C@@H](C)[C@H](O)[C@H](OC)[C@@H]1OC (mixture of isomers) | 36 | 6 | 
CC[C@H]1OC(=O)C[C@@H](O)[C@H](C)[C@@H](O[C@@H]2O[C@H](C)[C@@H](O)[C@H](N(C)C)[C@H]2O)[C@@H](C[C@@H](C(=O)NC(C)(C)C)N(C)C(C)=O)C[C@@H](C)C(=O)/C=C/C(C)=C/[C@@H]1CO[C@H]1O[C@@H](C)[C@H](O)[C@H](OC)[C@@H]1OC | 11 | 6 | 
CCCCNC(=O)C(C[C@H]1C[C@@H](C)C(=O)/C=C/C(C)=C/[C@H](CO[C@H]2O[C@@H](C)[C@H](O)[C@H](OC)[C@@H]2OC)[C@@H](CC)OC(=O)C[C@@H](O)[C@H](C)[C@H]1O[C@@H]1O[C@H](C)[C@@H](O)[C@H](N(C)C)[C@H]1O)N(C(=O)c1ccccc1)C(C)C (mixture of isomers) | 57 | 31 | 
CC[C@H]1OC(=O)C[C@@H](O)[C@H](C)[C@@H](O[C@@H]2O[C@H](C)[C@@H](O)[C@H](N(C)C)[C@H]2O)[C@@H](CC(C(=O)NC(C)(C)C)N(CCNC(=O)OC(C)(C)C)C(=O)c2ccccc2)C[C@@H](C)C(=O)/C=C/C(C)=C/[C@@H]1CO[C@H]1O[C@@H](C)[C@H](O)[C@H](OC)[C@@H]1OC (mixture of isomers) | 56 | 34 | 
CC[C@H]1OC(=O)C[C@@H](O)[C@H](C)[C@@H](O[C@@H]2O[C@H](C)[C@@H](O)[C@H](N(C)C)[C@H]2O)[C@@H](CC(C(=O)NC(C)(C)C)N(C)C(=O)c2ccccc2)C[C@@H](C)C(=O)/C=C/C(C)=C/[C@@H]1CO[C@H]1O[C@@H](C)[C@H](O)[C@H](OC)[C@@H]1OC (mixture of isomers) | 99 | 69 | 
CC[C@H]1OC(=O)C[C@@H](O)[C@H](C)[C@@H](O[C@@H]2O[C@H](C)[C@@H](O)[C@H](N(C)C)[C@H]2O)[C@@H](CC(C(=O)NC(C)(C)C)N(C)C(=O)c2ccccc2)C[C@@H](C)C(=O)/C=C/C(C)=C/[C@@H]1CO[C@H]1O[C@@H](C)[C@H](O)[C@H](OC)[C@@H]1OC (single isomer, unassigned) |  |  | 2 to 4 (≈ 1.98 to 3.96 µg/mL)
CC[C@H]1OC(=O)C[C@@H](O)[C@H](C)[C@@H](O[C@@H]2O[C@H](C)[C@@H](O)[C@H](N(C)C)[C@H]2O)[C@@H](CC=O)C[C@@H](C)C(=O)/C=C/C(C)=C/[C@@H]1CO[C@H]1O[C@@H](C)[C@H](O)[C@H](OC)[C@@H]1OC | 84 | 57 | 2 to 4 (≈ 1.54 to 3.09 µg/mL)
